Test results: the supplement of paper PMC4862054

Legend:
Conditions in all cases: incubation time: 72 h
HCC1143 = assay: drug sensitivity score (DSS), CellTiter-Glo (DSS (AUC-based score)); higher = stronger drug effect (viability inhibition or cytotoxicity); extreme values may be limits of the assay
Summary of the method: (§1)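 Normalisation on every plate relied on 0.1 % DMSO and a positive kill control. The plates, 384-well format, held compound at 5 concentrations 10-fold apart across a compound-specific 10,000-fold range, and breast cancer cell lines in 20 µl suspension were incubated on them for 72 h before CellTox Green and then CellTiter-Glo readings. The drug sensitivity score derives from the area under the fitted dose-response curve.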

MCF-10A [1] = assay: as above
Summary of the method: as §1

HDQ-P1 = assay: as above
Summary of the method: as §1

CAL-148 [2] = assay: as above
Summary of the method: as §1

CAL-120 = assay: as above
Summary of the method: as §1

CAL-85-1 [3] = assay: as above
Summary of the method: as §1

HCC1937 = assay: as above
Summary of the method: as §1

MFM-223 [4] = assay: as above
Summary of the method: as §1

MDA-MB-468 [5] = assay: as above
Summary of the method: as §1

BT-549 = assay: as above
Summary of the method: as §1

MDA-MB-436 [6] = assay: as above
Summary of the method: as §1

SK-BR-3 = assay: as above
Summary of the method: as §1

HCC1599 [7] = assay: as above
Summary of the method: as §1

BT-474 = assay: as above
Summary of the method: as §1

DU-4475 = assay: as above
Summary of the method: as §1

MDA-MB-231 [8] = assay: as above
Summary of the method: as §1

MDA-MB-453 = assay: as above
Summary of the method: as §1

Hs578T = assay: as above
Summary of the method: as §1

CAL-51 = assay: as above
Summary of the method: as §1

MCF-10A [9] = assay: drug sensitivity score (DSS), CellTox Green (DSS (AUC-based score)); higher = stronger drug effect (viability inhibition or cytotoxicity); extreme values may be limits of the assay
Summary of the method: as §1

CAL-148 [10] = assay: as above
Summary of the method: as §1

CAL-85-1 [11] = assay: as above
Summary of the method: as §1

MFM-223 [12] = assay: as above
Summary of the method: as §1

MDA-MB-468 [13] = assay: as above
Summary of the method: as §1

MDA-MB-436 [14] = assay: as above
Summary of the method: as §1

HCC1599 [15] = assay: as above
Summary of the method: as §1

MDA-MB-231 [16] = assay: as above
Summary of the method: as §1

Compound | drug sensitivity score (HCC1143) | drug sensitivity score (MCF-10A [1]) | drug sensitivity score (HDQ-P1) | drug sensitivity score (CAL-148 [2]) | drug sensitivity score (CAL-120) | drug sensitivity score (CAL-85-1 [3]) | drug sensitivity score (HCC1937) | drug sensitivity score (MFM-223 [4]) | drug sensitivity score (MDA-MB-468 [5]) | drug sensitivity score (BT-549) | drug sensitivity score (MDA-MB-436 [6]) | drug sensitivity score (SK-BR-3) | drug sensitivity score (HCC1599 [7]) | drug sensitivity score (BT-474) | drug sensitivity score (DU-4475) | drug sensitivity score (MDA-MB-231 [8]) | drug sensitivity score (MDA-MB-453) | drug sensitivity score (Hs578T) | drug sensitivity score (CAL-51) | drug sensitivity score (MCF-10A [9]) | drug sensitivity score (CAL-148 [10]) | drug sensitivity score (CAL-85-1 [11]) | drug sensitivity score (MFM-223 [12]) | drug sensitivity score (MDA-MB-468 [13]) | drug sensitivity score (MDA-MB-436 [14]) | drug sensitivity score (HCC1599 [15]) | drug sensitivity score (MDA-MB-231 [16])
COc1ccc(-c2cc3c(C)nc(N)nc3n([C@H]3CC[C@H](OCCO)CC3)c2=O)cn1 | 17.2 | 18.3 | 18.7 | 17.1 | 17.1 | 18.5 | 15.1 | 17 | 18.8 | 18.7 | 14.4 | 22.1 | 9.17 | 16.4 | 12.4 | 18.4 | 21.9 | 18 | 22.6 | 0 | 12.3 | 4.01 | 0 | 0 | 0 | 0 | 14.1
Cc1c(Cn2c(C)nc3c(C(=O)O)cc(N4CCOCC4)cc32)cccc1C(F)(F)F | 0 | 0 | 0 | 0 | 0 | 0 | 0 | 0 | 3.65 | 3.9 | 0.153 | 0 | 0 | 0 | 0 | 0 | 0 | 0 | 12.3 | 0 | 0 | 0 | 0 | 0 | 0 | 0 | 0
CC/C(=C(\c1ccc(O)cc1)c1ccc(OCCN(C)C)cc1)c1ccccc1 [4-hydroxytamoxifen] | 0 | 0 | 0 | 0 | 1.84 | 3.01 | 3.45 | 1.9 | 4.87 | 2.89 | 1.6 | 1.4 | 0 | 0 | 0 | 2.63 | 1.86 | 0 | 0 | 0 | 0 | 1.62 | 0 | 21 | 0.732 | 0 | 4.16
CCCCC/C=C/C=C1/C(=O)C=C[C@@H]1C/C=C\CCCC(=O)O [15D-PGJ2] | 0 | 0 | 0 | 0 | 0 | 0 | 0 | 0 | 0 | 0 | 0 | 0 | 0 | 0 | 0 | 0 | 0 | 0 | 0 | 0 | 0 | 0 | 0 | 0 | 0 | 0 | 0
O=C(Nc1c[nH]nc1-c1nc2ccc(CN3CCOCC3)cc2[nH]1)NC1CC1 [AT9283] | 2.84 | 5.49 | 2.87 | 0 | 5.15 | 0 | 0 | 1.08 | 13.4 | 4.94 | 0 | 1.96 | 0 | 5.15 | 1.31 | 6.11 | 0 | 4.11 | 7.83 | 0 | 0 | – | 0 | 13.2 | 0 | 0 | 14.3
COc1cc(CCc2cc(NC(=O)c3ccc(N4CC(C)NC(C)C4)cc3)n[nH]2)cc(OC)c1 (configuration not stated) [AZD4547] | 0 | 1.73 | 0 | 0 | 3.61 | 0 | 0 | 12.2 | 0 | 0.487 | 0 | 0 | 0 | 0 | 0 | 0 | 0.805 | 0.967 | 0 | 0 | 0.783 | 0 | 0 | 0 | 0 | 0 | 0
CC(=O)OC[C@H]1O[C@@H]([S-])[C@H](OC(C)=O)[C@@H](OC(C)=O)[C@@H]1OC(C)=O.CCP(CC)CC.[Au+] [Auranofin] | 5.15 | 1.42 | 3.9 | 1.24 | 0.998 | 6.05 | 7.45 | 2.71 | 14.9 | 9.2 | 5.88 | 1.76 | 1.36 | 1.22 | 1.74 | 4.38 | 6.93 | 3.87 | 11.7 | 0 | 0.881 | 4.88 | 1.22 | 9.05 | 0 | 0 | 3.16
CCC/C=C/C=C/C(=O)O[C@H]1/C(=C/C(=O)OC)C[C@H]2C[C@H]([C@@H](C)O)OC(=O)C[C@H](O)C[C@@H]3C[C@H](OC(C)=O)C(C)(C)[C@](O)(C[C@@H]4C/C(=C/C(=O)OC)C[C@H](/C=C/C(C)(C)[C@]1(O)O2)O4)O3 [Bryostatin 1] | 0 | 0 | 1.62 | 0 | 0 | 0 | 0 | 0 | 0 | 0.294 | 0 | 10.8 | 0 | 1.75 | 0 | 0 | 0 | 4.68 | 6.93 | 0 | 0 | 0 | 0 | 0 | – | 0 | 0
CO[C@@H](C(=O)N1Cc2[nH]nc(NC(=O)c3ccc(N4CCN(C)CC4)cc3)c2C1)c1ccccc1 [Danusertib] | 5.41 | 12 | 3.68 | 3.57 | 6.46 | 0 | 0 | 14.3 | 18.3 | 10.7 | 4.68 | 0 | 0 | 5.14 | 5.98 | 5.32 | 0 | 3.96 | 9.2 | 0.832 | 0 | 0 | 0 | 13.7 | 3.88 | 0 | 0
Cc1nc(Nc2ncc(C(=O)Nc3c(C)cccc3Cl)s2)cc(N2CCN(CCO)CC2)n1 [Dasatinib] | 6.57 | 15.9 | 14.9 | 0 | 8.55 | 8.17 | 6.2 | 0 | 4.01 | 7.26 | 0.821 | 0 | 0 | 11.4 | 0 | 14.2 | 0 | 8.38 | 11.8 | 7.15 | 0 | 6.5 | 0 | 0 | 0 | 0 | 4.62
O=S(=O)(c1cccc2cnccc12)N1CCCNCC1 [Fasudil] | 0 | 0 | 0 | 0 | 0 | 0 | 0 | 0 | 0 | 1.25 | 0 | 0 | 0 | 0 | 0.0897 | 0 | 1.2 | 0.0914 | 0 | 0 | 0 | 0 | 0 | – | 0 | 0 | 2.62
Cc1c(CN2CCN(C(=O)[C@H](C)O)CC2)sc2c(N3CCOCC3)nc(-c3cnc(N)nc3)nc12 [GDC-0980] | 11.4 | 12.6 | 14.1 | 12.4 | 10.9 | 11.8 | 6.52 | 12.7 | 10.1 | 13.1 | 8.47 | 18.5 | 2.28 | 8.66 | 6.71 | 9.56 | 17.5 | 12.6 | 14.7 | 0 | 6.07 | 2.26 | 6 | 0 | 0 | 0 | 0
C[C@]12C=CC(=O)C=C1CC[C@@H]1[C@@H]2[C@@H](O)C[C@@]2(C)[C@H]1CC[C@]2(O)C(=O)CO [Prednisolone] | 0 | 0 | 2.08 | 0 | 5.1 | 0 | 0 | 0 | 0 | 0 | 0 | 0 | 0 | 0 | 0 | 0 | 0 | 0 | 0 | 0 | 0 | 0 | 0 | 0 | – | 0 | 0
